Reference: patent publication US10626136B2, “Compositions and methods for improving Rebaudioside X solubility” (The Coca-Cola Company, priority 2012, dated 2020)
Blank lines part the entries; values can stand above or below the molecule they belong to.

Experiments:
Type in all cases: physicochemical
[1] = Approximate water solubility by solvent addition method (aliquots of water, visual inspection)
Experimental: The approximate aqueous solubility can be determined by a solvent addition method in which a weighed sample is treated with aliquots of water. The mixture is generally vortexed and/or sonicated between additions to facilitate dissolution. Complete dissolution of the test material is determined by visual inspection. Solubility is estimated based on the total solvent used to provide complete dissolution.
(§1) The approximate water solubility of Form A and amorphous Rebaudioside X were determined by a solvent addition method in which a weighed sample was treated with aliquots of water. The mixture was generally vortexed and/or sonicated between additions to facilitate dissolution. Complete dissolution of the test material was determined by visual inspection. Solubility was estimated based on the total solvent used to provide complete dissolution. The actual solubility may be greater than the value calculated because of the use of solvent aliquots that were too large or due to a slow rate of dissolution.
as §1, with “approximate” for “approximate water”, “the complexes was measured” for “Form A and amorphous Rebaudioside X were determined”

[2] = Water solubility of material before and after the water process (Example 4); details: Example 4, before and after heating to 121° C. in water and spray drying
[3] = Dynamic Vapor Sorption (DVS)
Experimental: The Dynamic Vapor Sorption (DVS) DVS data were collected on a VTI SGA-100 Vapor Sorption Analyzer. NaCl and PVP were used as calibration standards. The sample was not dried prior to analysis. Sorption and desorption data were collected over a range from 5 to 95% RH at 10% RH increments under a nitrogen purge. The equilibrium criterion used for analysis was less than 0.0100% weight change in 5 minutes with a maximum equilibration time of 3 hours. Data were not corrected for the initial moisture content of the samples.

[4] = Duration of clarity of aqueous solutions, with or without filtration
Text: The water solubility of amorphous Rebaudioside X prepared according to Example 4 was compared in various test material/water ratios with or without filtration prior to solubility determination. Generally, filtration performed after dissolution of sample assist the duration of clarity of the sample (or delays the precipitation/recrystallization of sample).

[5] = Equilibrium solubility in water by UV (205 nm)
Experimental: Samples were analyzed with a Cary 50 UV-Vis dual beam spectrophotometer. The detector was zeroed with a cuvette filled with water prior to sample analysis. Samples were analyzed at room temperature in 1.0 cm quartz cuvette using a scan rate of 600 nm/min in a range of 200-400 nm.
25.8 mg of amorphous Rebaudioside X was added to a 10-mL volumetric flask and dissolved 10 mL with water. This stock solution was diluted to five concentration levels for UV measurement.
A calibration curve at 205 nm was established (Abs at 205 nm vs. concentration) to provide the equation y=5.0625x+0.0022. R^2 was 0.9999. This equation was used for the subsequent determination of Rebaudioside X concentrations.
250 mg of amorphous Rebaudioside X was added to an amber vial and 10 mL of water was added. The mixture was stirred at room temperature about 10 minutes to yield a transparent solution with only small amount of solid remaining. The mixture became opaque rapidly. The mixture was placed on a mechanical oscillator set at a speed of 250 and 25° C. At the sampling time point of 1, 16, 24, 48, 72, 96, and 192 hours, an aliquot of the slurry was transferred to a centrifuge tube and separated at a speed of 16K rcf for 15 minutes. 200 μL of the clear supernatant was transferred to a 50-mL volumetric flask, 10 mL of water was added and mixed well before UV analysis.

Approximate Water Solubility [1]: >10000 µg/mL
Compound: C=C1C[C@@]23CCC4[C@](C)(C(=O)OC5OC(CO)C(O)C(OC6OC(CO)C(O)C(O)C6O)C5OC5OC(CO)C(O)C(O)C5O)CCC[C@@]4(C)[C@@H]2CCC1(OC1OC(CO)C(O)C(OC2OC(CO)C(O)C(O)C2O)C1OC1OC(CO)C(O)C(O)C1O)C3 (stereo partly drawn) [Amorphous (ethanol process)]

Approximate Water Solubility [1]: >10000 µg/mL
Compound: C=C1C[C@@]23CCC4[C@](C)(C(=O)OC5OC(CO)C(O)C(OC6OC(CO)C(O)C(O)C6O)C5OC5OC(CO)C(O)C(O)C5O)CCC[C@@]4(C)[C@@H]2CCC1(OC1OC(CO)C(O)C(OC2OC(CO)C(O)C(O)C2O)C1OC1OC(CO)C(O)C(O)C1O)C3 (stereo partly drawn) [Amorphous (water process)]

water solubility ([2]; listed as Form A Rebaudioside X): 0.05%
Approximate Water Solubility [1]: 1400 µg/mL
approximate aqueous solubility [1]: 0.1 to about 0.14
Compound: C=C1C[C@@]23CCC4[C@](C)(C(=O)OC5OC(CO)C(O)C(OC6OC(CO)C(O)C(O)C6O)C5OC5OC(CO)C(O)C(O)C5O)CCC[C@@]4(C)[C@@H]2CCC1(OC1OC(CO)C(O)C(OC2OC(CO)C(O)C(O)C2O)C1OC1OC(CO)C(O)C(O)C1O)C3 (stereo partly drawn) [Form A]

water solubility [2]: greater than 1%
solids recovered after DVS ([3]; XRPD after the DVS analysis): x-ray amorphous
weight loss upon desorption ([3]; desorption from 95% to 5% RH): 26.0 wt %
weight loss upon equilibration ([3]; equilibration at 5% RH): 3.1 wt %
weight gain on sorption ([3]; increasing the relative humidity from 5% to 95% RH): 26.3 wt %
hygroscopicity ([3]; judged from the large weight change): hygroscopic
approximate aqueous solubility [1]: greater than 0.3%
approximate water solubility compared to Form A Rebaudioside X [1]: substantially increased
Duration of Clarity of Sample ([4]; Sample 1: 250 mg/500 mL water, not filtered): >60 days
Duration of Clarity of Sample ([4]; Sample 2: 500 mg/500 mL water, not filtered): >60 days
Duration of Clarity of Sample ([4]; Sample 6: 1750 mg/500 mL water, not filtered): ~0.12 days
Duration of Clarity of Sample ([4]; Sample 8: 1000 mg/100 mL water, filtered (0.22 μm membrane)): ~0.083 days
Average Sample Concentration ([5]; 250 mg in 10 mL water, 25° C.): Average Sample Concentration = 2.6 mg/mL
Original Sample Concentration ([5]; 250 mg in 10 mL water, 25° C., sampling time 1 hrs): 5.8 mg/mL
Original Sample Concentration ([5]; 250 mg in 10 mL water, 25° C., sampling time 16 hrs): 2.7 mg/mL
Original Sample Concentration ([5]; 250 mg in 10 mL water, 25° C., sampling time 24 hrs): 2.6 mg/mL
Original Sample Concentration ([5]; 250 mg in 10 mL water, 25° C., sampling time 48 hrs): 2.5 mg/mL
Original Sample Concentration ([5]; 250 mg in 10 mL water, 25° C., sampling time 72 hrs): 2.8 mg/mL
Original Sample Concentration ([5]; 250 mg in 10 mL water, 25° C., sampling time 96 hrs): 2.8 mg/mL
Original Sample Concentration ([5]; 250 mg in 10 mL water, 25° C., sampling time 192 hrs): 2.6 mg/mL
Compound: C=C1C[C@@]23CC[C@H]4[C@@](C)(CCC[C@@]4(C)C(=O)O[C@@H]4O[C@H](CO)[C@@H](O)[C@H](O[C@@H]5O[C@H](CO)[C@@H](O)[C@H](O)[C@H]5O)[C@H]4O[C@@H]4O[C@H](CO)[C@@H](O)[C@H](O)[C@H]4O)[C@@H]2CC[C@]1(O[C@@H]1O[C@H](CO)[C@@H](O)[C@H](O[C@@H]2O[C@H](CO)[C@@H](O)[C@H](O)[C@H]2O)[C@H]1O[C@@H]1O[C@H](CO)[C@@H](O)[C@H](O)[C@H]1O)C3 [amorphous Rebaudioside X]
Duration of Clarity of Sample ([4]; Sample 4: 1000 mg/500 mL water, not filtered): ^bMost Rebaudioside X dissolved quickly. However, a small amount of floating particles remained.
XRPD pattern of the solids recovered after solubility testing ([5]; after 8 days solubility testing in water): consistent with Form A, indicating conversion
